# Experimental data taken from PubChem BioAssay (NCI).
#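 Each compound was tested at five concentrations against cells in 96-well plates for 48 hours. TGI: total growth inhibition.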
# Assays:
# Assay in all cases: NCI anticancer screen, dose series, 48 h
# 786-0 renal = system: 786-0 renal
# A549 NSCLC = system: A549 NSCLC
# CAKI-1 renal = system: CAKI-1 renal
# COLO 205 colon = system: COLO 205 colon
# EKVX NSCLC = system: EKVX NSCLC
# K-562 leukemia = system: K-562 leukemia
# KM12 colon = system: KM12 colon
# MDA-MB-435 = system: MDA-MB-435
# NCI-H522 lung = system: NCI-H522 lung
# OVCAR-3 ovarian = system: OVCAR-3 ovarian
# SF-295 CNS = system: SF-295 CNS
# SNB-19 CNS = system: SNB-19 CNS
# SW-620 colon = system: SW-620 colon
# TK-10 renal = system: TK-10 renal
# UACC-257 melanoma = system: UACC-257 melanoma
# UACC-62 melanoma = system: UACC-62 melanoma
# HCC-2998 colon = system: HCC-2998 colon
# HS 578T breast = system: HS 578T breast
# SR leukemia = system: SR leukemia
Compound,TGI (786-0 renal),TGI (A549 NSCLC),TGI (CAKI-1 renal),TGI (COLO 205 colon),TGI (EKVX NSCLC),TGI (K-562 leukemia),TGI (KM12 colon),TGI (MDA-MB-435),TGI (NCI-H522 lung),TGI (OVCAR-3 ovarian),TGI (SF-295 CNS),TGI (SNB-19 CNS),TGI (SW-620 colon),TGI (TK-10 renal),TGI (UACC-257 melanoma),TGI (UACC-62 melanoma),TGI (HCC-2998 colon),TGI (HS 578T breast),TGI (SR leukemia)
O=c1c(C2=NCCC2)c(-c2ccc[nH]2)[nH]n1-c1ccccc1,> 100 µM,> 100 µM,> 100 µM,> 100 µM,> 100 µM,> 100 µM,> 100 µM,> 100 µM,> 100 µM,> 100 µM,> 100 µM,> 100 µM,> 100 µM,> 100 µM,> 100 µM,> 100 µM,,,
CN(C)c1ccc(-c2c(C#N)c(O)n(NS(=O)(=O)c3ccccc3)c(=O)c2C#N)cc1,> 100 µM,> 100 µM,> 100 µM,> 100 µM,> 100 µM,> 100 µM,> 100 µM,> 100 µM,> 100 µM,,,> 100 µM,> 100 µM,> 100 µM,> 100 µM,> 100 µM,> 100 µM,> 100 µM,
O=c1oc2ccccc2c(O)c1/C=N/C(=S)NCc1ccccc1,> 100 µM,> 100 µM,63.7 µM,> 100 µM,> 100 µM,,> 100 µM,> 100 µM,,> 100 µM,> 100 µM,> 100 µM,> 100 µM,51.8 µM,> 100 µM,,> 100 µM,,
CC1=NN2C(c3ccc(C)cc3)=CSC2=NC(C)(C)C1,> 100 µM,> 100 µM,,> 100 µM,> 100 µM,> 100 µM,> 100 µM,,> 100 µM,> 100 µM,> 100 µM,> 100 µM,> 100 µM,> 100 µM,> 100 µM,> 100 µM,> 100 µM,,
CC(C)(C)CNC(=O)NCn1cc(-c2ccccc2)nn1,> 100 µM,> 100 µM,> 100 µM,> 100 µM,> 100 µM,> 100 µM,> 100 µM,,> 100 µM,,> 100 µM,> 100 µM,> 100 µM,> 100 µM,> 100 µM,,> 100 µM,,> 100 µM
CC1(C)OCC(C2OC(OC(=O)c3ccc([N+](=O)[O-])cc3)C3OC(C)(C)OC23)O1 (centres undefined),> 100 µM,> 100 µM,> 100 µM,> 100 µM,> 100 µM,> 100 µM,> 100 µM,> 100 µM,> 100 µM,> 100 µM,> 100 µM,> 100 µM,> 100 µM,> 100 µM,> 100 µM,> 100 µM,> 100 µM,,> 100 µM
